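Test compounds were applied to cells in 96-well plates for 48 hours at 5 doses. Abbreviation: GI50, concentration required for 50% inhibition of growth.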 Calls of active or inactive are those of the source. Rule as the data show it: active = GI50 up to about 1.1 µM and inactive = higher.
Key:
Assay in all cases: inhibition of tumour cell growth, NCI panel, 48 h
A498 = test system: A498
BT-549 = test system: BT-549
CAKI-1 = test system: CAKI-1
HOP-92 = test system: HOP-92
HT-29 = test system: HT-29
IGROV-1 = test system: IGROV-1
K562 = test system: K562
LOX IMVI = test system: LOX IMVI
MDA-N = test system: MDA-N
OVCAR-4 = test system: OVCAR-4
OVCAR-5 = test system: OVCAR-5
OVCAR-8 = test system: OVCAR-8
RPMI-8226 = test system: RPMI-8226
RXF 393 = test system: RXF 393
SF-539 = test system: SF-539
SK-MEL-2 = test system: SK-MEL-2
SN12C = test system: SN12C
SNB-75 = test system: SNB-75
SW-620 = test system: SW-620
TK-10 = test system: TK-10

SMILES | GI50 (A498) | GI50 (BT-549) | GI50 (CAKI-1) | GI50 (HOP-92) | GI50 (HT-29) | GI50 (IGROV-1) | GI50 (K562) | GI50 (LOX IMVI) | GI50 (MDA-N) | GI50 (OVCAR-4) | GI50 (OVCAR-5) | GI50 (OVCAR-8) | GI50 (RPMI-8226) | GI50 (RXF 393) | GI50 (SF-539) | GI50 (SK-MEL-2) | GI50 (SN12C) | GI50 (SNB-75) | GI50 (SW-620) | GI50 (TK-10)
COC(=O)C1Cc2c(C)cccc2C1=O (stereo not given) | > 100 µM (inactive) | > 100 µM (inactive) | > 100 µM (inactive) | > 100 µM (inactive) | > 100 µM (inactive) | > 100 µM (inactive) | 66.7 µM (inactive) | 88.9 µM (inactive) | > 100 µM (inactive) | > 100 µM (inactive) | > 100 µM (inactive) | > 100 µM (inactive) | > 100 µM (inactive) | > 100 µM (inactive) | > 100 µM (inactive) | > 100 µM (inactive) | > 100 µM (inactive) | > 100 µM (inactive) | > 100 µM (inactive) | > 100 µM (inactive)
Cc1ccc(Nc2[nH]c(=O)[nH]c(=O)c2C)cc1Cl | > 100 µM (inactive) | > 100 µM (inactive) | 67.3 µM (inactive) | 76 µM (inactive) | > 100 µM (inactive) | 78.5 µM (inactive) | > 100 µM (inactive) | > 100 µM (inactive) | > 100 µM (inactive) | > 100 µM (inactive) | > 100 µM (inactive) | > 100 µM (inactive) | 58.5 µM (inactive) | > 100 µM (inactive) | > 100 µM (inactive) | > 100 µM (inactive) | > 100 µM (inactive) | 29.8 µM (inactive) | > 100 µM (inactive) | 91.8 µM (inactive)
Cc1ccc(OCCn2cc(Nc3ccccc3)c(=O)n(CCOc3ccc(C)cc3)c2=O)cc1 | > 100 µM (inactive) | > 100 µM (inactive) | > 100 µM (inactive) | 44.5 µM (inactive) | 51.1 µM (inactive) | 50.8 µM (inactive) | 70.5 µM (inactive) | > 100 µM (inactive) | > 100 µM (inactive) | 49.9 µM (inactive) | > 100 µM (inactive) | 40.6 µM (inactive) | > 100 µM (inactive) | 23.5 µM (inactive) | > 100 µM (inactive) | > 100 µM (inactive) | > 100 µM (inactive) | > 100 µM (inactive) | > 100 µM (inactive) | 48.4 µM (inactive)
CCCCCC(O)[C@H]1C(=O)C[C@@H](O[Si](C)(C)C(C)(C)C)[C@@H]1/C=C/CCOCc1ccccc1 (stereo not given in full) | 17.8 µM (inactive) | 8.07 µM (inactive) | 8.47 µM (inactive) | 12.4 µM (inactive) | 9.59 µM (inactive) | 12.8 µM (inactive) | > 36.5 µM (inactive) | 10.9 µM (inactive) | 9.51 µM (inactive) | 12.6 µM (inactive) | 17.9 µM (inactive) | 13.8 µM (inactive) | 17 µM (inactive) | 12.2 µM (inactive) | 4.23 µM (inactive) | 15.5 µM (inactive) | 19.1 µM (inactive) | 17.8 µM (inactive) | 13.1 µM (inactive) | 15.1 µM (inactive)
O=c1ssc(Cl)c1Cl | > 10 µM (inactive) | > 10 µM (inactive) | 5.38 µM (inactive) | > 10 µM (inactive) | > 10 µM (inactive) | > 10 µM (inactive) | 3.23 µM (inactive) | > 10 µM (inactive) | > 10 µM (inactive) | > 5.6 µM (inactive) | > 10 µM (inactive) | > 10 µM (inactive) | 5.19 µM (inactive) | > 10 µM (inactive) | > 10 µM (inactive) | > 10 µM (inactive) | > 10 µM (inactive) | > 10 µM (inactive) | 3.55 µM (inactive) | > 10 µM (inactive)
COc1cc(CNCc2cc(OC)c(OC)c(OC)c2)cc(OC)c1OC | > 10 µM (inactive) | > 10 µM (inactive) | > 10 µM (inactive) | > 6.07 µM (inactive) | > 10 µM (inactive) | > 10 µM (inactive) | > 4.95 µM (inactive) | > 8.38 µM (inactive) | > 10 µM (inactive) | > 10 µM (inactive) | > 10 µM (inactive) | > 10 µM (inactive) | 9.73 µM (inactive) | > 10 µM (inactive) | > 10 µM (inactive) | > 10 µM (inactive) | > 10 µM (inactive) | > 8.38 µM (inactive) | > 10 µM (inactive) | > 10 µM (inactive)
O=c1[nH]nc(Cc2ccc(Cl)cc2)n1/N=C/c1ccc([N+](=O)[O-])o1 | 5.7 µM (inactive) | 1.87 µM (inactive) | 3.24 µM (inactive) | 4.57 µM (inactive) | 2.21 µM (inactive) | 2.05 µM (inactive) | 2.58 µM (inactive) | 1.2 µM (inactive) | 1.65 µM (inactive) | 2.73 µM (inactive) | 6.85 µM (inactive) | 1.99 µM (inactive) | 1.12 µM (active) | 1.56 µM (inactive) | 2.21 µM (inactive) | 3.38 µM (inactive) | 3.78 µM (inactive) | 7.13 µM (inactive) | 2.92 µM (inactive) | 4.27 µM (inactive)
CC12CC(Br)(Br)C(=O)C3C1CCCC32 | 16.8 µM (inactive) | 2.09 µM (inactive) | 2.65 µM (inactive) | 2.17 µM (inactive) | 5.47 µM (inactive) | 10.1 µM (inactive) | 2.1 µM (inactive) | 2.68 µM (inactive) | 2.99 µM (inactive) | 4.48 µM (inactive) | 17.8 µM (inactive) | 4.07 µM (inactive) | 2.84 µM (inactive) | 2.11 µM (inactive) | 11.9 µM (inactive) | 13.9 µM (inactive) | 4.57 µM (inactive) | 8.2 µM (inactive) | 2.25 µM (inactive) | 6.27 µM (inactive)
CCOC(C/N=c1/nc(N(C)C)ss1)OCC | > 82.8 µM (inactive) | 23.4 µM (inactive) | 22.6 µM (inactive) | 18.4 µM (inactive) | 0.135 µM (active) | > 27.5 µM (inactive) | 0.354 µM (active) | 16.3 µM (inactive) | 3.56 µM (inactive) | 16.6 µM (inactive) | 19.5 µM (inactive) | 28.1 µM (inactive) | 1.16 µM (inactive) | 19 µM (inactive) | 17.4 µM (inactive) | 13.8 µM (inactive) | 19.2 µM (inactive) | 27.6 µM (inactive) | 2.6 µM (inactive) | 33.3 µM (inactive)
O=C1c2ccccc2-c2c1c1ccccc1c(=O)n2-c1cccnc1 | > 10 µM (inactive) | 34.8 µM (inactive) | 35.3 µM (inactive) | 8.17 µM (inactive) | > 63.7 µM (inactive) | 34.2 µM (inactive) | > 60.3 µM (inactive) | 32.1 µM (inactive) | > 100 µM (inactive) | > 49.3 µM (inactive) | > 100 µM (inactive) | 31.8 µM (inactive) | > 39.5 µM (inactive) | > 100 µM (inactive) | 21.3 µM (inactive) | > 100 µM (inactive) | > 52.2 µM (inactive) | 49.1 µM (inactive) | 20.2 µM (inactive) | > 62.1 µM (inactive)
COc1cc2c(cc1O)C1Cc3ccc(OC)c(O)c3C[N+]1(C)CC2 (stereo not given) | > 100 µM (inactive) | > 100 µM (inactive) | > 100 µM (inactive) | > 100 µM (inactive) | > 100 µM (inactive) | > 100 µM (inactive) | 58.3 µM (inactive) | > 100 µM (inactive) | > 100 µM (inactive) | > 100 µM (inactive) | > 100 µM (inactive) | > 100 µM (inactive) | > 100 µM (inactive) | > 100 µM (inactive) | > 100 µM (inactive) | > 100 µM (inactive) | > 100 µM (inactive) | > 100 µM (inactive) | > 100 µM (inactive) | > 100 µM (inactive)
CC(=O)n1cc(C2CC23N=C(c2ccccc2)OC3=O)c2ccccc21 (stereo not given) | 22.6 µM (inactive) | 14.2 µM (inactive) | 15.8 µM (inactive) | 22.1 µM (inactive) | 17.9 µM (inactive) | 16.8 µM (inactive) | 13.7 µM (inactive) | 16 µM (inactive) | 23.9 µM (inactive) | 16.3 µM (inactive) | 22 µM (inactive) | 16.6 µM (inactive) | 7.87 µM (inactive) | 16.3 µM (inactive) | 19.5 µM (inactive) | 21.5 µM (inactive) | 14.7 µM (inactive) | 19 µM (inactive) | 19.8 µM (inactive) | 20 µM (inactive)
O=c1[nH]c(Br)nc2[nH]nnc12 | > 100 µM (inactive) | 18.1 µM (inactive) | 7.08 µM (inactive) | > 100 µM (inactive) | > 100 µM (inactive) | > 100 µM (inactive) | 9.4 µM (inactive) | 6.89 µM (inactive) | 38.9 µM (inactive) | 85.5 µM (inactive) | > 100 µM (inactive) | 8.79 µM (inactive) | 17.9 µM (inactive) | 35 µM (inactive) | 16.7 µM (inactive) | 8.24 µM (inactive) | 32.4 µM (inactive) | 23.1 µM (inactive) | 45.8 µM (inactive) | 54.6 µM (inactive)
CCCCCCCCCCCCCCCC(=O)Nc1ccn(C2OC(CO)C(O)C2O)c(=O)n1 (stereo not given) | 22.1 µM (inactive) | 33.7 µM (inactive) | 28.7 µM (inactive) | 16.6 µM (inactive) | 25.7 µM (inactive) | 35.6 µM (inactive) | 9.75 µM (inactive) | 5.25 µM (inactive) | 30.3 µM (inactive) | > 100 µM (inactive) | 45.4 µM (inactive) | 6.55 µM (inactive) | 42.2 µM (inactive) | 24.6 µM (inactive) | 57.7 µM (inactive) | > 100 µM (inactive) | 31 µM (inactive) | 30.5 µM (inactive) | > 90.4 µM (inactive) | > 100 µM (inactive)

From ChEMBL document CHEMBL1201862, “PubChem BioAssay data set” (2004)
